Reference: PubChem BioAssay AID248 (DTP/NCI, 2004)
Where “and” joins values, the source holds several entries; their conditions need not be identical. Equal values may be shown once. Inconclusive results and toxic doses are left out. Cut-off read from the data, not from the text of the source: active = T/C of 150% or more; inactive = T/C below 125%.

System: L1210 leukemia ip in BDF1 mice, survival T/C
Experiment: NCI In Vivo Anticancer Drug Screen. Data for tumor model L1210 Leukemia (intraperitoneal) in B6D2F1 (BDF1) mice
Details: endpoint: mean survival time, higher = longer survival
How it was run: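 Read-out is survival time, reported as the treated-group measurement over the vehicle-control measurement.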

[1] = dose: 100.0 mg/kg/injection, schedule: Q04DX003 (ip), vehicle: acetone
[2] = dose: 200.0 mg/kg/injection, schedule: Q04DX003 (ip), vehicle: acetone
[3] = dose: 100.0 mg/kg/injection, schedule: Q01DX001 (ip), vehicle: saline
[4] = dose: 200.0 mg/kg/injection, schedule: Q01DX001 (ip), vehicle: saline
[5] = dose: 400.0 mg/kg/injection, schedule: Q01DX001 (ip), vehicle: saline
[6] = dose: 100.0 mg/kg/injection, schedule: Q01DX009 (ip), vehicle: saline sonified
[7] = dose: 200.0 mg/kg/injection, schedule: Q01DX009 (ip), vehicle: saline sonified
[8] = dose: 400.0 mg/kg/injection, schedule: Q01DX009 (ip), vehicle: saline sonified
[9] = dose: 100.0 mg/kg/injection, schedule: Q04DX003 (ip), vehicle: saline with Tween-80
[10] = dose: 200.0 mg/kg/injection, schedule: Q04DX003 (ip), vehicle: saline with Tween-80
[11] = dose: 400.0 mg/kg/injection, schedule: Q04DX003 (ip), vehicle: saline with Tween-80

Measured: T/C

O=CNC(Cc1ccccc1)Cc1ccccc1
inactive: dose: 5.0 mg/kg/injection, schedule: Q01DX009 (ip), vehicle: Klucel (hydroxypropylcellulose) (HPC) 98 % of control | dose: 5.0 mg/kg/injection, schedule: Q04DX003 (ip), vehicle: Klucel (hydroxypropylcellulose) (HPC) 103 % of control | dose: 10.0 mg/kg/injection, schedule: Q01DX009 (ip), vehicle: Klucel (hydroxypropylcellulose) (HPC) 102 % of control | dose: 10.0 mg/kg/injection, schedule: Q04DX003 (ip), vehicle: Klucel (hydroxypropylcellulose) (HPC) 103 % of control | dose: 20.0 mg/kg/injection, schedule: Q01DX009 (ip), vehicle: Klucel (hydroxypropylcellulose) (HPC) 102 % of control | dose: 20.0 mg/kg/injection, schedule: Q04DX003 (ip), vehicle: Klucel (hydroxypropylcellulose) (HPC) 102 % of control and 107 % of control

C=CCNC(=S)Nc1ncn[nH]1
inactive: dose: 75.0 mg/kg/injection, schedule: Q01DX001 (ip), vehicle: carboxymethylcellulose (CMC) 103 % of control | dose: 150.0 mg/kg/injection, schedule: Q01DX001 (ip), vehicle: carboxymethylcellulose (CMC) 104 % of control | dose: 300.0 mg/kg/injection, schedule: Q01DX001 (ip), vehicle: carboxymethylcellulose (CMC) 90 % of control

c1ccc2c(c1)ccc1[s+]cccc12
inactive: [1] 100 % of control | [2] 105 % of control

CC(=O)Nc1ccc(S(=O)(=O)Nc2cc(C)c(C)cc2C)cc1
inactive: dose: 100.0 mg/kg/injection, schedule: Q04DX002 (ip), vehicle: Klucel (hydroxypropylcellulose) (HPC) 103 % of control | dose: 200.0 mg/kg/injection, schedule: Q04DX002 (ip), vehicle: Klucel (hydroxypropylcellulose) (HPC) 91 % of control

Cc1ccnc2c1ccc1ccccc12
inactive: [3] 100 % of control | [4] 98 % of control | [5] 93 % of control

Clc1cc(C(Cl)(Cl)Cl)c(Cl)cc1C(Cl)(Cl)Cl
inactive: dose: 25.0 mg/kg/injection, schedule: Q04DX003 (ip), vehicle: Klucel (hydroxypropylcellulose) (HPC) 93 % of control | dose: 50.0 mg/kg/injection, schedule: Q04DX003 (ip), vehicle: Klucel (hydroxypropylcellulose) (HPC) 104 % of control | [6] 120 % of control | dose: 100.0 mg/kg/injection, schedule: Q04DX003 (ip), vehicle: Klucel (hydroxypropylcellulose) (HPC) 97 % of control | [7] 104 % of control | dose: 200.0 mg/kg/injection, schedule: Q04DX003 (ip), vehicle: Klucel (hydroxypropylcellulose) (HPC) 94 % of control | [8] 94 % of control | dose: 400.0 mg/kg/injection, schedule: Q04DX003 (ip), vehicle: Klucel (hydroxypropylcellulose) (HPC) 94 % of control

C=CCNC(=O)Oc1cccc(NC(=O)OC)c1
inactive: [9] 107 % of control | [10] 108 % of control | [11] 105 % of control

CC(C)CC1NC(=O)C(Cc2ccc(OCc3ccccc3)cc2)NC1=O (stereo not given)
inactive: dose: 100.0 mg/kg/injection, schedule: Q01DX009 (ip), vehicle: saline with Tween-80 102 % of control | dose: 100.0 mg/kg/injection, schedule: Q04DX003 (ip), vehicle: saline 104 % of control | dose: 200.0 mg/kg/injection, schedule: Q01DX009 (ip), vehicle: saline with Tween-80 96 % of control | dose: 200.0 mg/kg/injection, schedule: Q04DX003 (ip), vehicle: saline 88 % of control | dose: 400.0 mg/kg/injection, schedule: Q01DX009 (ip), vehicle: saline with Tween-80 100 % of control | dose: 400.0 mg/kg/injection, schedule: Q04DX003 (ip), vehicle: saline 94 % of control

CCCCCCCCCCCCCCCCCC[P+](CCCC)(CCCC)CCCC
inactive: dose: 0.75 mg/kg/injection, schedule: Q04DX002 (ip), vehicle: saline with Tween-80 110 % of control | dose: 1.5 mg/kg/injection, schedule: Q04DX002 (ip), vehicle: saline with Tween-80 90 % of control | dose: 3.0 mg/kg/injection, schedule: Q04DX002 (ip), vehicle: saline with Tween-80 100 % of control | dose: 3.12 mg/kg/injection, schedule: Q04DX002 (ip), vehicle: saline with Tween-80 87 % of control | dose: 6.25 mg/kg/injection, schedule: Q04DX002 (ip), vehicle: saline with Tween-80 94 % of control

CCN(CC)CCCC(C)Nc1cc(/C=C/c2ccc(Cl)cc2)nc2ccc(N(C)C)cc12 (stereo not given)
inactive: dose: 3.12 mg/kg/injection, schedule: Q01DX009 (ip), vehicle: saline with Tween-80 95 % of control | dose: 6.25 mg/kg/injection, schedule: Q01DX009 (ip), vehicle: saline with Tween-80 97 % of control | dose: 12.5 mg/kg/injection, schedule: Q01DX009 (ip), vehicle: saline with Tween-80 95 % of control and 98 % of control

CC(C)C12CCC(=O)C=C1CCCC2OC(=O)c1ccccc1C(=O)O (stereo not given)
inactive: [9] 101 % of control | [10] 100 % of control

CC1OC(n2ccc(NC(=O)c3ccc(NC(=O)C(C)(N)CO)cc3)nc2=O)CCC1OC1OC(C)C(N(C)C)C(O)C1O (stereo not given)
inactive: dose: 100.0 mg/kg/injection, schedule: Q01DX001 (ip), vehicle: carboxymethylcellulose (CMC) 106 % of control | dose: 200.0 mg/kg/injection, schedule: Q01DX001 (ip), vehicle: carboxymethylcellulose (CMC) 100 % of control | dose: 400.0 mg/kg/injection, schedule: Q01DX001 (ip), vehicle: carboxymethylcellulose (CMC) 106 % of control

CCN(CC)C(=O)C1C2C=CC(C2)C1C(=O)N(CC)CC (stereo not given)
inactive: [9] 98 % of control | [10] 98 % of control

Ic1ccccc1C[N+]12CN3CN(CN(C3)C1)C2
inactive: dose: 15.0 mg/kg/injection, schedule: Q01DX015 (ip), vehicle: carboxymethylcellulose (CMC) 101 % of control | dose: 30.0 mg/kg/injection, schedule: Q01DX015 (ip), vehicle: carboxymethylcellulose (CMC) 92 % of control | dose: 60.0 mg/kg/injection, schedule: Q01DX015 (ip), vehicle: carboxymethylcellulose (CMC) 92 % of control | dose: 100.0 mg/kg/injection, schedule: Q01DX001 (ip), vehicle: acetone 101 % of control | dose: 100.0 mg/kg/injection, schedule: Q01DX009 (ip), vehicle: acetone 96 % of control | [1] 100 % of control | dose: 120.0 mg/kg/injection, schedule: Q01DX015 (ip), vehicle: carboxymethylcellulose (CMC) 103 % of control | dose: 200.0 mg/kg/injection, schedule: Q01DX001 (ip), vehicle: acetone 101 % of control | dose: 200.0 mg/kg/injection, schedule: Q01DX009 (ip), vehicle: acetone 94 % of control | [2] 100 % of control | dose: 400.0 mg/kg/injection, schedule: Q01DX001 (ip), vehicle: acetone 94 % of control | dose: 400.0 mg/kg/injection, schedule: Q04DX003 (ip), vehicle: acetone 93 % of control

CCCCCCCCCCCCOC(=O)C[n+]1cccc(C(=O)NC)c1
inactive: dose: 12.5 mg/kg/injection, schedule: Q04DX003 (ip), vehicle: saline with Tween-80 101 % of control | dose: 25.0 mg/kg/injection, schedule: Q04DX003 (ip), vehicle: saline with Tween-80 97 % of control | dose: 50.0 mg/kg/injection, schedule: Q04DX003 (ip), vehicle: saline with Tween-80 95 % of control

O=C1Cc2c(Cl)cccc2C(=S)N1
inactive: [6] 95 % of control | [9] 95 % of control | [7] 91 % of control | [10] 93 % of control | [8] 98 % of control | [11] 92 % of control

COc1c(NC(=O)c2ccc(C(=O)Nc3cccc([N+](=O)[O-])c3OC)cc2)cccc1[N+](=O)[O-]
inactive: dose: 100.0 mg/kg/injection, schedule: Q01DX009 (ip), vehicle: Klucel (hydroxypropylcellulose) (HPC) 97 % of control | dose: 200.0 mg/kg/injection, schedule: Q01DX009 (ip), vehicle: Klucel (hydroxypropylcellulose) (HPC) 100 % of control | dose: 400.0 mg/kg/injection, schedule: Q01DX009 (ip), vehicle: Klucel (hydroxypropylcellulose) (HPC) 97 % of control

CCCCCCCCN1N=C(C)CCC1=O
inactive: [3] 101 % of control | [4] 90 % of control | [5] 101 % of control
